Target: Regulator of G-protein signaling 7 (Homo sapiens) (UniProt P49802)
Experiment: small molecules altering RGS7 interaction with Galphao – biochemical, multiplexed bead flow cytometry, SAR compounds, SAR follow-up (AID 2296)
Settings: bead-based flow cytometry, AF488-Galphao binding to RGS7

Sequence of Regulator of G-protein signaling 7 (Homo sapiens) (P49802 whole entry, looked up): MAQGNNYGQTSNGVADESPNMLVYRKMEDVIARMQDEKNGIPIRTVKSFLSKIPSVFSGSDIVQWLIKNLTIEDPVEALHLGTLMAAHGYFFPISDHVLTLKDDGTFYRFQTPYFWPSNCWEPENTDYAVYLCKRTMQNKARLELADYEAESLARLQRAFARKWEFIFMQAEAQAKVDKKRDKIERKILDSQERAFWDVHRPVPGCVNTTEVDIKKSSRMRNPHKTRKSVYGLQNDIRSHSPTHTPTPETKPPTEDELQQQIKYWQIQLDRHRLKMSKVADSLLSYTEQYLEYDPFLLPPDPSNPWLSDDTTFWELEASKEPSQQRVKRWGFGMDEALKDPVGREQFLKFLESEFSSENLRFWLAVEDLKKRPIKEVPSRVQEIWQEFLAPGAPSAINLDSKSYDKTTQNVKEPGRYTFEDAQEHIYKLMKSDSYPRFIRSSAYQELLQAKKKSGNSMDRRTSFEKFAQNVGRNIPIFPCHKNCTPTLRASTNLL

| EC50 | Structure (SMILES) |
| --- | --- |
| 141 nM | NS(=O)(=O)c1ccc(N/N=C/c2ccc(O)c(O)c2O)c([N+](=O)[O-])c1 |

Same assay, conditions: bead-based flow cytometry, AF488-Galphao binding to RGS7; measured here: Ki from EC50 fit

| Structure (SMILES) | Ki |
| --- | --- |
| CC1(C)OC(=O)C(=Cc2ccc(-c3ccc(S(N)(=O)=O)cc3)o2)C(=O)O1 | 1600 nM |
| CCN=c1scc(C)n1/N=C/c1ccc(O)c(O)c1O | 380 nM |
| CCC(=O)NC(c1ccc(C)cc1)c1cc([N+](=O)[O-])c2cccnc2c1O (stereo not drawn) | 3750 nM |
| COc1ccc(C2=CC(=O)C=CC2=O)cc1 | 300 nM |
| O=C(Cc1csc(N2CCOCC2)n1)N/N=C/c1ccc(O)c(O)c1O | 360 nM |
| Cc1[nH]n(-c2ccccc2)c(=S)c1C=NCCCN=Cc1c(C)[nH]n(-c2ccccc2)c1=S | 1870 nM |
| CCN(CC)S(=O)(=O)c1cccc(C(=O)N/N=C/c2ccc(O)c(O)c2O)c1 | 320 nM |

Molecules with a lower Ki, results first:

| Ki | Structure (SMILES) |
| --- | --- |
| 210 nM | CN=c1scc(C)n1/N=C/c1ccc(O)c(O)c1O |
| 130 nM | O=C1C(Cl)=C(N2CCCCC2)C(=O)C(Cl)=C1c1cnc(N2CCCCC2)s1 |
| 120 nM | NS(=O)(=O)c1ccc(N/N=C/c2ccc(O)c(O)c2O)c([N+](=O)[O-])c1 |
| 120 nM | Nc1c(C(=O)NCC2CCCO2)sc2nc3c(c(-c4ccco4)c12)CC/C3=C/c1ccco1 (stereo not drawn) |
| 70 nM | CN1CCN(C2=C(Cl)C(=O)C(c3cnc(N4CCCCC4)s3)=C(Cl)C2=O)CC1 |
